# Assay results reported in PubChem BioAssay (NCI).
# Values joined by “and” are separate entries in the source; they are usually repeats but may differ in a detail not shown here. Equal values may be shown once.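 In this assay, cells in 96-well plates receive the compound at five concentrations for 48 hours. Endpoints are linearly interpolated between the surrounding concentrations. At the GI50, growth is halved. The concentration for full growth arrest is given as TGI.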
# How the values were obtained:
# Assay in all cases: NCI tumour cell line growth inhibition, 48 h
# [1] = test system: EKVX NSCLC
# [2] = test system: SF-539 CNS
# [3] = test system: SK-OV-3 ovarian
# [4] = test system: RXF 393 renal
# [5] = test system: MOLT-4 leukemia
# [6] = test system: OVCAR-3 ovarian
# [7] = test system: HOP-18 NSCLC
# [8] = test system: DLD-1 colon
# [9] = test system: DMS 273 small cell lung
# [10] = test system: M19-MEL melanoma
# [11] = test system: KM20L2 colon
# [12] = test system: DMS 114 small cell lung
# [13] = test system: XF 498 CNS
# [14] = test system: RXF-631 renal
# [15] = test system: LXFL 529 NSCLC
# [16] = test system: SNB-78 CNS
# [17] = test system: P388/ADR leukemia
SMILES,TGI [1],TGI [2],TGI [3],TGI [4],TGI [5],TGI [6],TGI [7],TGI [8],TGI [9],TGI [10],TGI [11],TGI [12],TGI [13],TGI [14],TGI [15],TGI [16],TGI [17],GI50 [1],GI50 [3],GI50 [5]
CC(=O)O[C@@H]1C[C@]2(C(=O)c3ccccc3)C(=O)C(=O)S[C@]12c1ccccc1,> 100 µM,60.4 µM,> 100 µM,49.9 µM,> 100 µM,> 100 µM,,,,,,,,,,,,,,
C[C@H]1C[C@@H]2[C@H]([C@@H](O)C[C@@]3(C)[C@H]2CC[C@]3(O)C(=O)CO)[C@@]2(C)C=CC(=O)C=C12,,,> 100 µM,,> 100 µM,> 100 µM,> 100 µM,> 100 µM,> 100 µM,> 100 µM,> 100 µM,> 100 µM,,,,,,,,
CC(C)(C)[Si](OC1CCOC1=O)(c1ccccc1)c1ccccc1 (stereo not drawn),> 100 µM,72.3 µM,> 100 µM,,59 µM,27.1 µM,80.9 µM,> 100 µM,,39.1 µM,35.6 µM,,24.2 µM,98.8 µM,> 100 µM,> 100 µM,,,,
COc1cc2c(c(OC)c1OC)-c1ccc(OC)c(=O)cc1C(NC(=O)COc1ccccc1)CC2 (stereo not drawn),> 100 µM,< 0.01 µM,0.766 µM,> 71.5 µM,53 µM,< 0.0355 µM,> 100 µM,> 100 µM,> 100 µM,> 100 µM,< 0.01 µM,< 0.01 µM,65.8 µM,> 100 µM,> 100 µM,> 100 µM,,,,
Cc1ccc(O)c(Cc2nc3ccccc3nc2-c2cccc(Cl)c2)c1,> 100 µM,> 100 µM,> 100 µM,> 100 µM,51.4 µM,> 100 µM,,,,,,,,,,,,,,
COc1cc(C(=O)NC2CCc3cc(OC)c(OC)c(OC)c3-c3ccc(OC)c(=O)cc32)cc(OC)c1OC (stereo not drawn),> 100 µM,0.0689 µM,20.9 µM,24 µM,43.2 µM,0.261 µM,> 100 µM,> 100 µM,> 100 µM,> 100 µM,0.326 µM,0.1 µM,16 µM,,44.2 µM,> 100 µM,,,,
c1ccc2c(CSCc3cccc4ccccc34)cccc2c1,> 100 µM,,,> 100 µM,> 100 µM,> 100 µM,,,,,,,,,,,,,,
C[n+]1cccc(NC(=O)c2ccc(NC(=O)C34CCC(C(=O)Nc5ccc(C(=O)Nc6ccc[n+](C)c6)cc5)(CC3)CC4)cc2)c1,> 100 µM,> 100 µM,,61.5 µM,> 100 µM,,> 100 µM,> 100 µM,25.9 µM,> 100 µM,> 100 µM,> 100 µM,,,> 100 µM,> 100 µM,,,,
CCCCc1ccc(N=C(N)N)cc1,> 100 µM,,> 100 µM,,,> 100 µM,,,,,,,,,,,,,,
CC(=O)Oc1ccccc1,> 100 µM,> 100 µM,,> 100 µM,> 100 µM,> 100 µM,,> 100 µM,> 100 µM,> 100 µM,> 100 µM,> 100 µM,,> 100 µM,> 100 µM,,,,,
O=C(C=P(c1ccccc1)(c1ccccc1)c1ccccc1)c1ccc(-c2cccs2)cc1,7.09 µM,12.4 µM,20.6 µM,15.4 µM,4.7 µM,8.52 µM,,,,,,,,,,,,,,
CCCCN1C(=O)C2Cc3c([nH]c4ccccc34)C(c3cccc(O)c3)N2C1=O (stereo not drawn),31.9 µM,34.3 µM,30 µM,,69.6 µM,30.2 µM,,,,,,,,,,,,,,
CNC(=O)OCc1nc(SC)n(C)c1CO,> 100 µM,> 100 µM,> 100 µM,> 100 µM,> 100 µM,> 100 µM,> 100 µM,> 100 µM,> 100 µM,> 100 µM,> 100 µM,> 100 µM,> 100 µM,,,> 100 µM,> 100 µM,,,
COC1/C=C(C)/C=C/C(C)/C=C/C(=O)OC(/C(C)=C/C=C(\C)CNC(=O)[C@H](CO)NC=O)C(C)/C=C/C=C/C(OC)CC/C=C(C)/C=C/C1 (stereo partly drawn),> 1 µM,> 0.257 µM,> 1 µM,> 1 µM,> 0.611 µM,> 0.461 µM,,,,,,,,,,,,,,
CN1C=c2c3c(ccc2=C2C=CC4C=C5OCOC5=CC4=C21)OCO3 (stereo not drawn),3.16 µM and 26.3 µM,3.18 µM and 4.8 µM,3.96 µM and 25.4 µM,2.57 µM and 4.4 µM,,2.16 µM and 3.2 µM,,,,,,,,,,,,1.72 µM and 13.5 µM,1.85 µM and 12.7 µM,0.253 µM and 1.74 µM
O=C(CSCC(=O)N/N=C/c1ccc2c(c1)OCO2)N/N=C/c1ccc2c(c1)OCO2,> 100 µM,> 100 µM,> 100 µM,> 100 µM,56.8 µM,> 100 µM,,,,,,,,,,,,,,
COc1ccccc1/C=C/c1ccnc2ccccc12,23 µM,27.8 µM,29.7 µM,,28 µM,26.7 µM,,,,,,,,,,,,,,
CCOC(=O)c1cnc(N(C)C)nc1SC(=N)N,> 100 µM,> 100 µM,> 100 µM,> 100 µM,> 100 µM,> 100 µM,,,,,,,,,,,,,,
CC(=O)Nc1ccc2c(c1)/C(=C\c1ccc([N+](C)(C)C)cc1)c1ccccc1-2,78.6 µM,,> 100 µM,> 100 µM,> 100 µM,> 100 µM,,,,,,,,,,,,,,
